Measured values taken from patent US20070128217A1 (priority 2003, published 2007).

Tests used:
[1] = test system: control sera (pooled serum of ten healthy LUMC hospital workers; commercial negative donor pooled serum from the Dutch bloodbank); assay type: binding, human; design: Binding of Control serum LUMC to linear peptides / Binding of Control serum Blood-bank to linear peptides / Binding of Control serum LUMC to looped peptides / Binding of Control Serum Blood-Bank to Looped peptides / Binding of Control serum LUMC to linear peptides of the protein M of SARS-CoV Urbani / Binding of Control serum Blood-bank to linear peptides of the protein M of SARS-CoV Urbani / Binding of Control serum LUMC to looped peptides of the protein M of SARS-CoV Urbani / Binding of Control Serum Blood-Bank to Looped peptides of the protein M of SARS-CoV Urbani: unit not given here
[2] = test system: rabbit serum obtained by immunizing a rabbit with the SARS-CoV strain Frankfurt 1; assay type: binding; design: Binding of a rabbit serum to linear peptides / Binding of a rabbit serum to looped peptides / Rabbit serum linear peptides / Rabbit serum looped peptides / Binding of a rabbit serum to linear peptides of protein N of SARS-CoV Urbani (Rabbit serum linear peptides) / Binding of a rabbit serum to looped/cyclic peptides of protein N of SARS-CoV Urbani (Rabbit serum looped peptides): unit not given here
[3] = test system: antibodies in sera from SARS patients (sera 1a, 1b, 2, 6, 37, 62, London, SARS-yellow, SARS-green); assay type: binding, human; design: Binding of serum 6 to linear peptides of protein X1 of SARS-CoV Urbani / Binding of serum 37 to linear peptides of protein X1 of SARS-CoV Urbani / Binding of serum 6 to looped/cyclic peptide (PEPSCAN-ELISA) / Binding of serum 37 to looped/cyclic peptide (PEPSCAN-ELISA) / Binding of serum 37 to looped/cyclic peptides of protein X1 of SARS-CoV Urbani / Binding of serum 6 to linear peptides of protein X2 / Binding of serum 37 to linear peptides of protein X2 / Binding of serum 37 to looped/cyclic peptides of protein X2 of SARS-CoV Urbani / Binding of serum 6 to linear peptides of protein M of SARS-CoV Urbani / Binding of serum 37 to linear peptides of protein M of SARS-CoV Urbani / Binding of serum 6 to looped/cyclic peptides of protein M of SARS-CoV Urbani / Binding of serum 37 to looped/cyclic peptides of protein M of SARS-CoV Urbani / Binding of serum 6 to linear peptides of protein X3 of SARS-CoV Urbani / Binding of serum 37 to linear peptides of protein X3 of SARS-CoV Urbani / Binding of serum 37 to looped/cyclic peptides of protein X3 of SARS-CoV Urbani / Binding of serum 6 to linear peptides of protein X4 of SARS-CoV Urbani / Binding of serum 37 to linear peptides of protein X4 of SARS-CoV Urbani / Binding of serum 37 to looped/cyclic peptides of protein X4 of SARS-CoV Urbani / Binding of serum 6 to linear peptides of protein X5 of SARS-CoV Urbani / Binding of serum 37 to linear peptides of protein X5 of SARS-CoV Urbani / Binding of serum 37 to looped/cyclic peptides of protein X5 of SARS-CoV Urbani / Binding of serum 6 to linear peptides of protein N of SARS-CoV Urbani / Binding of serum 37 to linear peptides of protein N of SARS-CoV Urbani / Binding of serum 6 to linear peptide (PEPSCAN-ELISA) / Binding of serum 1a to looped/cyclic peptides of protein N of SARS-CoV Urbani / Binding of serum 1b to looped/cyclic peptides of protein N of SARS-CoV Urbani / Binding of serum 2 to looped/cyclic peptides of protein N of SARS-CoV Urbani / Binding of serum 6 to looped/cyclic peptides of protein N of SARS-CoV Urbani / Binding of serum 37 to looped/cyclic peptides of protein N of SARS-CoV Urbani / Binding of serum 62 to looped/cyclic peptides of protein N of SARS-CoV Urbani / Binding of serum London to looped/cyclic peptides of protein N of SARS-CoV Urbani / Binding of serum SARS-green to looped/cyclic peptides of protein N of SARS-CoV Urbani: unit not given here

## VVHGYFTEVYYQLES
[1]
  Binding of Control Serum Blood-Bank to Looped peptides: 0.4
  Binding of Control serum Blood-bank to linear peptides: 0.4
  Binding of Control serum LUMC to linear peptides: 0.8
  Binding of Control serum LUMC to looped peptides: 0.6
[2]
  Binding of a rabbit serum to linear peptides: 0.1
  Binding of a rabbit serum to looped peptides: 0.7
[3]
  Binding of serum 1a to linear peptides of protein X1 of SARS-CoV Urbani: 0.8
  Binding of serum 1a to looped/cyclic peptides of protein X1 of SARS-CoV Urbani: 0.6
  Binding of serum 1b to linear peptides of protein X1 of SARS-CoV Urbani: 0.7
  Binding of serum 1b to looped/cyclic peptides of protein X1 of SARS-CoV Urbani: 0.4
  Binding of serum 2 to linear peptides of protein X1 of SARS-CoV Urbani: 0.4
  Binding of serum 2 to looped/cyclic peptides of protein X1 of SARS-CoV Urbani: 0.4
  Binding of serum 6 to linear peptides of protein X1 of SARS-CoV Urbani: 0.3
  Binding of serum 6 to looped/cyclic peptides of protein X1 of SARS-CoV Urbani: 0.3
  Binding of serum 37 to linear peptides of protein X1 of SARS-CoV Urbani: 0.5
  Binding of serum 37 to looped/cyclic peptides of protein X1 of SARS-CoV Urbani: 0.6
  Binding of serum 62 to linear peptides of protein X1 of SARS-CoV Urbani: 0.4
  Binding of serum 62 to looped/cyclic peptides of protein X1 of SARS-CoV Urbani: 0.5
  Binding of serum London to linear peptides of protein X1 of SARS-CoV Urbani: 0.2
  Binding of serum London to looped/cyclic peptides of protein X1 of SARS-CoV Urbani: 0.2
  Binding of serum SARS-green to linear peptides of protein X1 of SARS-CoV Urbani: 0.2
  Binding of serum SARS-green to looped/cyclic peptides of protein X1 of SARS-CoV Urbani: 0.2
  Binding of serum SARS-yellow to linear peptides of protein X1 of SARS-CoV Urbani: 0.3
  Binding of serum SARS-yellow to looped/cyclic peptides of protein X1 of SARS-CoV Urbani: 0.4

## SVSPKLFIRQEEVQQ
[1]
  Binding of Control Serum Blood-Bank to Looped peptides: 0.4
  Binding of Control serum Blood-bank to linear peptides: 0.6
  Binding of Control serum LUMC to linear peptides: 0.3
  Binding of Control serum LUMC to looped peptides: 0.7
[2]
  Rabbit serum linear peptides: 0.4
  Rabbit serum looped peptides: 0.3
[3]
  Binding of serum 1a to linear peptides of protein X4 of SARS-CoV Urbani: 0.7
  Binding of serum 1a to looped/cyclic peptides of protein X4 of SARS-CoV Urbani: 0.7
  Binding of serum 1b to linear peptides of protein X4 of SARS-CoV Urbani: 0.5
  Binding of serum 1b to looped/cyclic peptides of protein X4 of SARS-CoV Urbani: 0.6
  Binding of serum 2 to linear peptides of protein X4 of SARS-CoV Urbani: 0.3
  Binding of serum 2 to looped/cyclic peptides of protein X4 of SARS-CoV Urbani: 0.6
  Binding of serum 6 to linear peptides of protein X4 of SARS-CoV Urbani: 0.5
  Binding of serum 6 to looped/cyclic peptides of protein X4 of SARS-CoV Urbani: 0.4
  Binding of serum 37 to linear peptides of protein X4 of SARS-CoV Urbani: 0.7
  Binding of serum 37 to looped/cyclic peptides of protein X4 of SARS-CoV Urbani: 0.7
  Binding of serum 62 to linear peptides of protein X4 of SARS-CoV Urbani: 0.7
  Binding of serum 62 to looped/cyclic peptides of protein X4 of SARS-CoV Urbani: 0.6
  Binding of serum London to linear peptides of protein X4 of SARS-CoV Urbani: 0.6
  Binding of serum London to looped/cyclic peptides of protein X4 of SARS-CoV Urbani: 0.3
  Binding of serum SARS-green to linear peptides of protein X4 of SARS-CoV Urbani: 0.4
  Binding of serum SARS-green to looped/cyclic peptides of protein X4 of SARS-CoV Urbani: 0.7
  Binding of serum SARS-yellow to linear peptides of protein X4 of SARS-CoV Urbani: 0.3
  Binding of serum SARS-yellow to looped/cyclic peptides of protein X4 of SARS-CoV Urbani: 0.4

## YLYALIYFLQCINAC
[1]
  Binding of Control Serum Blood-Bank to Looped peptides: 0.5
  Binding of Control serum Blood-bank to linear peptides: 0.5
  Binding of Control serum LUMC to linear peptides: 0.6
  Binding of Control serum LUMC to looped peptides: 0.5
[2]
  Binding of a rabbit serum to linear peptides: 0.1
  Binding of a rabbit serum to looped peptides: 0.4
[3]
  Binding of serum 1a to linear peptides of protein X1 of SARS-CoV Urbani: 0.7
  Binding of serum 1a to looped/cyclic peptide (PEPSCAN-ELISA): 0.4
  Binding of serum 1b to linear peptides of protein X1 of SARS-CoV Urbani: 0.5
  Binding of serum 1b to looped/cyclic peptide (PEPSCAN-ELISA): 0.2
  Binding of serum 2 to linear peptides of protein X1 of SARS-CoV Urbani: 0.5
  Binding of serum 2 to looped/cyclic peptide (PEPSCAN-ELISA): 0.3
  Binding of serum 6 to linear peptides of protein X1 of SARS-CoV Urbani: 0.5
  Binding of serum 6 to looped/cyclic peptide (PEPSCAN-ELISA): 0.2
  Binding of serum 37 to linear peptides of protein X1 of SARS-CoV Urbani: 0.6
  Binding of serum 37 to looped/cyclic peptide (PEPSCAN-ELISA): 0.4
  Binding of serum 62 to linear peptides of protein X1 of SARS-CoV Urbani: 0.5
  Binding of serum 62 to looped/cyclic peptide (PEPSCAN-ELISA): 0.4
  Binding of serum London to linear peptides of protein X1 of SARS-CoV Urbani: 0.4
  Binding of serum London to looped/cyclic peptide (PEPSCAN-ELISA): 0.2
  Binding of serum SARS-green to linear peptides of protein X1 of SARS-CoV Urbani: 0.2
  Binding of serum SARS-green to looped/cyclic peptide (PEPSCAN-ELISA): 0.1
  Binding of serum SARS-yellow to linear peptides of protein X1 of SARS-CoV Urbani: 0.3
  Binding of serum SARS-yellow to looped/cyclic peptide (PEPSCAN-ELISA): 0.2

## AGMEAQFLYLYALIY
[1]
  Binding of Control Serum Blood-Bank to Looped peptides: 0.5
  Binding of Control serum Blood-bank to linear peptides: 0.5
  Binding of Control serum LUMC to linear peptides: 0.6
  Binding of Control serum LUMC to looped peptides: 0.6
[2]
  Binding of a rabbit serum to linear peptides: 0.1
  Binding of a rabbit serum to looped peptides: 0.6
[3]
  Binding of serum 1a to linear peptides of protein X1 of SARS-CoV Urbani: 0.7
  Binding of serum 1a to looped/cyclic peptide (PEPSCAN-ELISA): 0.5
  Binding of serum 1b to linear peptides of protein X1 of SARS-CoV Urbani: 0.6
  Binding of serum 1b to looped/cyclic peptide (PEPSCAN-ELISA): 0.4
  Binding of serum 2 to linear peptides of protein X1 of SARS-CoV Urbani: 0.6
  Binding of serum 2 to looped/cyclic peptide (PEPSCAN-ELISA): 0.4
  Binding of serum 6 to linear peptides of protein X1 of SARS-CoV Urbani: 0.4
  Binding of serum 6 to looped/cyclic peptide (PEPSCAN-ELISA): 0.3
  Binding of serum 37 to linear peptides of protein X1 of SARS-CoV Urbani: 0.5
  Binding of serum 37 to looped/cyclic peptide (PEPSCAN-ELISA): 0.5
  Binding of serum 62 to linear peptides of protein X1 of SARS-CoV Urbani: 0.4
  Binding of serum 62 to looped/cyclic peptide (PEPSCAN-ELISA): 0.6
  Binding of serum London to linear peptides of protein X1 of SARS-CoV Urbani: 0.2
  Binding of serum London to looped/cyclic peptide (PEPSCAN-ELISA): 0.2
  Binding of serum SARS-green to linear peptides of protein X1 of SARS-CoV Urbani: 0.1
  Binding of serum SARS-green to looped/cyclic peptide (PEPSCAN-ELISA): 0.2
  Binding of serum SARS-yellow to linear peptides of protein X1 of SARS-CoV Urbani: 0.2
  Binding of serum SARS-yellow to looped/cyclic peptide (PEPSCAN-ELISA): 0.3

## VYRINWVTGGIAIAM
[1]
  Binding of Control Serum Blood-Bank to Looped peptides of the protein M of SARS-CoV Urbani: 0.7
  Binding of Control serum Blood-bank to linear peptides of the protein M of SARS-CoV Urbani: 0.7
  Binding of Control serum LUMC to linear peptides of the protein M of SARS-CoV Urbani: 1.0
  Binding of Control serum LUMC to looped peptides of the protein M of SARS-CoV Urbani: 0.8
[2]
  Rabbit serum linear peptides: 0.3
  Rabbit serum looped peptides: 0.4
[3]
  Binding of serum 1a to linear peptides of protein M of SARS-CoV Urbani: 0.9
  Binding of serum 1a to looped/cyclic peptides of protein M of SARS-CoV Urbani: 0.7
  Binding of serum 1b to linear peptides of protein M of SARS-CoV Urbani: 0.8
  Binding of serum 1b to looped/cyclic peptides of protein M of SARS-CoV Urbani: 0.4
  Binding of serum 2 to linear peptides of protein M of SARS-CoV Urbani: 0.8
  Binding of serum 2 to looped/cyclic peptides of protein M of SARS-CoV Urbani: 0.6
  Binding of serum 6 to linear peptides of protein M of SARS-CoV Urbani: 1.0
  Binding of serum 6 to looped/cyclic peptides of protein M of SARS-CoV Urbani: 0.5
  Binding of serum 37 to linear peptides of protein M of SARS-CoV Urbani: 0.6
  Binding of serum 37 to looped/cyclic peptides of protein M of SARS-CoV Urbani: 0.7
  Binding of serum 62 to linear peptides of protein M of SARS-CoV Urbani: 0.6
  Binding of serum 62 to looped/cyclic peptides of protein M of SARS-CoV Urbani: 1.1
  Binding of serum London to linear peptides of protein M of SARS-CoV Urbani: 0.6
  Binding of serum London to looped/cyclic peptides of protein M of SARS-CoV Urbani: 0.2
  Binding of serum SARS-green to linear peptides of protein M of SARS-CoV Urbani: 0.7
  Binding of serum SARS-green to looped/cyclic peptides of protein M of SARS-CoV Urbani: 0.3
  Binding of serum SARS-yellow to linear peptides of protein M of SARS-CoV Urbani: 0.3
  Binding of serum SARS-yellow to looped/cyclic peptides of protein M of SARS-CoV Urbani: 0.8
